Test results as given in patent US20110123483A1, “HMGB1 FOR CANCER TREATMENT” (DEUTSCHES KREBSFORSCHUNGSZENTRUM, priority 2009, published 2011).
“Also recorded” adds a separate entry of the source.

Tests used:
[1] = tested on: U251 MG cells; assay: ROS measurement by DCF fluorescence and FACS analysis; type: cell-based, human; conditions: 40 nM, 24 h (FIG. 3A)
Description: For measurement of reactive oxygen species (ROS) and mitochondrial membrane potential (MMP) 1.5×10^6 U251 MG cells were seeded in 6 cm plates, treated with 40 nM rhHMGB1 for 24 h and incubated with the fluorescent DiOC6 (3,3′-dihexyloxacarbocyanine iodide, 40 nmol/ll, Sigma Chemical Co., St. Louis, Mo.) or with the fluorescent H2DCF-DA (dichlorodihydrofluorescein diacetate, 10 μM, Invitrogen) for 1 h at 37° C., respectively. The cells were trypsinized and centrifuged at 2,000 rpm for 5 min at 4° C. The supernatant was discarded and the pellet was washed 2× with sterile Dulbecco's PBS containing 0.1% fetal calf serum on ice and again centrifuged at 2,000 rpm for 5 min at 4° C. The pellet was resuspended in 500 μl sterile Dulbecco's PBS on ice. Oxidation of H2DCF to DCF by ROS and DiOC6 accumulation in mitochondria were measured immediately at FL-1 by flow cytometry using a FACScalibur (Beckton Dickinson, Heidelberg, Germany). Cell cycle was determined by measurement of priopidiumiodide (PI)-uptake of the cells according to standard procedures. Briefly, the cells were harvested and washed twice in sterile Dulbecco's PBS on ice, spun down at 2,000 rpm for 5 min at 4° C. and fixed with 70% ethanol for 30 min at 4° C. Contaminating RNA was eliminated by treatment with 100 μg/ml of RNase A, then 50 μg/ml PI was added and DNA content was measured immediately at FI-2. […]

[2] = tested on: NCH421 K glioblastoma stem-cell-like cells; assay: Trypan blue vital stain, counting blue cells in a Neubauer chamber; type: cell-based; conditions: 80 nM, 24 h, p<0.05
Description: Trypan blue influx into NCH421 K glioblastoma multiforme stem-cell-like cells was […] culture flasks and then incubating them for 10 min with 1:1,000 trypan blue solution. […] Glioblastoma stem-cell-like cell line NCH421K was maintained in BIT (bovine serum albumine, insulin, transferring)-medium (DMEM HAMS F12+1% P/S+1% L-glutamin+10 ml BIT+EGF (20 ng/ml)+BFGF (20 ng/ml)).

[3] = tested on: U251MG cells; assay: Megamitochondria formation, COX IV immunofluorescence and electron microscopy; type: cell-based, human
Description: U251MG cells were plated onto 8 well chamber-slides (Nunc, Wiesbaden, Germany) or grown confluently in 6 cm culture dishes containing round glass cover plates. For some samples, the cells were stained with the fluorescent dye MitoTracker Red CMXRos (50 nM, Molecular Probes, Invitrogen, Karlsruhe, Germany) for 30 min at 37° C. 24 h after seeding, the cells were fixed for 15 min with 2% paraformaldehyde solution or pre-cooled 100% methanol (on ice), washed 3× with PBS, permeabilized on ice with PBS containing 0.2% TritonX-100 and 1% fetal calf serum for 5 min and washed again three times with PBS containing 1% or 5% FCS. After blocking with PBS containing 1% or 5% FCS at room temperature for 60 min, permeabilized cells were incubated with monoclonal rabbit fluoro-conjugated anti-COX IV antibody (1:10, 3E11, Alexa Fluor 488 conjugate, Cell Signaling) or monoclonal mouse anti-polyhis-tag antibody (1:1000, R&D Systems) for 30 min at 4° C. and then washed three times with PBS with 1% or 5% FCS. In case the primary antibody was unconjugated to a fluorescent dye, goat anti-mouse or anti-rabbit secondary antibody Alexa Fluor® 488 or […] (1:200, Invitrogen GmbH, Karlsruhe, Germany) together with 1 μg/ml 4′,6-Diamidino-2-phenylindol (DAPI) was added for 30 min at 4° C. in a dark chamber. After washing three times with PBS with 1% or 5% FCS, cells were covered with cover slips. Photomicrographs were taken using a Olympus VANOX-T (AH-2) fluorescence microscope with immersion oil, ne 23=1.518 and the Soft Imaging System AnalysisB software (Leica Microsystems, Wetzlar, Germany) or on a confocal microscope (Leica SP2).
Cells were fixed in situ with 2.3% glutaraldehyde in 50 mM sodium cacodylat (pH 7.2) for 30 min at 4° C., scraped from the plates, collected by low-speed centrifugation at 200×g for 10 min at 4° C. and successively stained with 2% osmium tetroxide and 0.5% uranyl acetate. After dehydration and embedding in Epru the probes were processed for ultrathin section. Micrographs were taken with a Zeiss EM-10A electron microscope at 80 kV. The magnification indicator was routinely controlled by the use of a grating replica.

[4] = tested on: U251MG glioblastoma cells; assay: Cytotoxicity assay, cell survival by crystal violet staining; type: cell-based, human
Description: 20,000 U251MG glioblastoma cells or human astrocytic cells (ScienCell) were plated into 96-well plates. After 24 h cells were treated with rhHMGB1 (Sigma Aldrich) or rat recombinant HMGB1 (generously provided by Angelika Bierhaus, Heidelberg, Germany), and TRAIL (for 24 h) or Temozolomide (for 72 h) alone or in combination, respectively. […] Cell proliferation was assessed by seeding 50,000 U251 MG cells in 6 cm culture plates and treatment with rhHMGB1, followed by counting the cells in a Neubauer chamber at day 0, 2, 4 and 5.

[5] = tested on: pseudo rho zero cells; assay: Survival of pseudo rho zero cells by crystal violet analysis; type: cell-based, human; conditions: cells devoid of intact mitochondrial DNA
Description: U251 glioblastoma cells and non-immortalized human astrocytic cells (ScienCell, USA) were maintained in DMEM (Life Technologies) containing 10% FCS, 4.5 g/L glucose, glutamine, 110 mg/L sodium pyruvate, and 1% penicillin-streptomycin (Life Technologies) and in astrocyte medium (ScienCell) containing 2% FBS (fetal bovine serum) and 1% penicillin-streptomycin at 37° C. and 5% CO2. For the generation of pseudo rho zero cells (0.0), U251 MG cells were treated with low dose (250 ng/ml) ethidiumbromide for 3 months. The cells were supplemented with DMEM (10% FCS, 1% P/S) containing 50 μg/ml L-pyruvate and 5 mg/ml uridine (King and Attardi, 1989).
(§1) 20,000 U251MG glioblastoma cells or human astrocytic cells (ScienCell) were plated into 96-well plates. After 24 h cells were treated with rhHMGB1 (Sigma Aldrich) or rat recombinant HMGB1 (generously provided by Angelika Bierhaus, Heidelberg, Germany), and TRAIL (for 24 h) or Temozolomide (for 72 h) alone or in combination, respectively. Cell survival was measured by crystal violet staining as described previously (Gdynia et al., 2007). Cell proliferation was assessed by seeding 50,000 U251 MG cells in 6 cm culture plates and treatment with rhHMGB1, followed by counting the cells in a Neubauer chamber at day 0, 2, 4 and 5.

[6] = tested on: U251MG glioma cells; assay: Cell proliferation, counting in a Neubauer chamber; type: cell-based, human; conditions: increasing concentrations, several days (FIG. 1A)
Description: as §1

Substance: rhHMGB1: recombinant human High Mobility Group B1 protein (Sigma Aldrich)
- generation of radical oxygen species (ROS) [1]: strong generation
- trypan blue influx versus control [2]: 7±1 fold increase
- formation of megamitochondria, COX IV immunofluorescence ([3]; FIG. 8C): generation of extremely enlarged spherical mitochondria
- autophagosomes or rupture of the outer cell membrane, electron microscopy ([3]; FIG. 10): not observed
- number and size of megamitochondria, electron microscopy ([3]; FIG. 10): increased in a time- and concentration-dependent manner
- typical morphological features of apoptosis (membrane blebbing, apoptotic bodies, chromatin condensation) ([3]; after rhHMGB1 treatment): could not be detected
- cell death, combined treatment with TRAIL ([4]; 4 nM rhHMGB1 and TRAIL, 24 h (FIG. 1C)): strong synergistic induction of cell death
- cell death, combined treatment with Temozolomide ([4]; 4 nM rhHMGB1 and temozolomide, 72 h (FIG. 1C)): strong synergistic induction of cell death
- cell death ([4]; 80 nM, after 48 h): substantial cell death
- susceptibility to rhHMGB1-induced cell death ([4]; 72 h (FIG. 1B)): susceptible
- rhHMGB1-induced cell death in pseudo rho zero cells [5]: almost completely resistant; also recorded: highly protected
- induction of cell death [6]: induction of cell death even at low nanomolar concentrations
- tumor cell proliferation [6]: strong inhibition
